These results are taken from US10377755B2, “BCL-2 inhibitors” (Newave Pharmaceutical Inc., priority 2016, dated 2019).

One may read the IC50 as the concentration needed to halve the response being measured. For orientation: Ki means the equilibrium dissociation constant of an inhibitor or competing ligand from its target. Usually TGI stands for the reduction of tumour growth relative to the control group.

For data set [1], the target named is Bcl-2 (Homo sapiens (Human), UniProt P10415). As to the kind of experiment: Bcl-2 competition binding (fluorescence polarization) assay. The settings on record: BH3 peptide, 3 hours incubation at room temperature. How it is done: Biological Example 1: Bcl-2 Competition Binding (Fluorescence Polarization) Assay
Bcl-2, sequence (P10415 whole entry): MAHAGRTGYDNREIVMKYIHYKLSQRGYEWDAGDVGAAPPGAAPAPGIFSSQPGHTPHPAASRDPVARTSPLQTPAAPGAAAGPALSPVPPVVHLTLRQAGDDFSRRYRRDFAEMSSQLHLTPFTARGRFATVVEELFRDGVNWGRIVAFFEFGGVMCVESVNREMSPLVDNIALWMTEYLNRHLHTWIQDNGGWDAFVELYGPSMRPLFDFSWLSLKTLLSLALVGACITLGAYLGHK
This binding assay was performed in 96-well plate and with each assay contained 15 and 30 nM of labeled peptide and purified Bcl-2 protein (purchased from R&D Systems, Inc). The assay buffer contained 20 mM Hepes (pH 7.0), 50 mM KCl, 5 mM MgCl2, 20 mM Na2MoO4, 0.1 mg/ml Bovine Gamma Globulin and 0.01% NP40. Compounds were diluted in DMSO and added to the final assay with concentration range from 20 uM to 2 nM. The polarization degree (mP) value was determined by BioTek Synergy II with background subtraction after 3 hours of incubation at room temperature. IC50 was calculated using Prism software with sigmoidal dose-response curve fitting. ABT-737 was used as reference compound. Such assays, carried out with a range of doses of test compounds, allow the determination of an approximate IC50 value.
A general note: Polarisation of emitted light reports the rotation of a fluorescent probe.

For data set [2], the system named is RS4;11. Briefly: In vitro anti-proliferation assay (ATPlite) in BCL-2-dependent acute lymphoblastic leukemia cell line RS4;11. The format is cell-based. The settings on record: Homo sapiens, about 72 hours, 5% FBS. How it is done: Biological Example 2: In Vitro Anti-Proliferation Assay in BCL-2-Dependent Acute Lymphoblastic Leukemia Cell Line RS4;11
(§1) Cell antiproliferation is assayed by PerkinElmer ATPlite™ Luminescence Assay System. Briefly, the various test cancer cell lines are plated at a density of about 1×10^4 cells per well in Costar 96-well plates, and are incubated with different concentrations of compounds for about 72 hours in medium supplemented with 5% FBS. One lyophilized substrate solution vial is then reconstituted by adding 5 mL of substrate buffer solution, and is agitated gently until the solution is homogeneous. About 50 μL of mammalian cell lysis solution is added to 100 μL of cell suspension per well of a microplate, and the plate is shaken for about five minutes in an orbital shaker at ˜700 rpm. This procedure is used to lyse the cells and to stabilize the ATP. Next, 50 μL substrate solution is added to the wells and microplate is shaken for five minutes in an orbital shaker at ˜700 rpm. Finally, the luminescence is measured by a PerkinElmer TopCount® Microplate Scintillation Counter. Such assays, carried out with a range of doses of test compounds, allow the determination of the cellular anti-antiproliferative IC50 of the compounds of the present invention. The following table lists the IC50 values of certain compounds of the invention.
Background: In ATP-based viability assays light output follows the ATP content of the culture.

The subject of data set [3] is H146. Briefly: In vitro anti-proliferation assay (ATPlite) in BCL-XL-dependent small cell lung cancer cell line H146. The format is cell-based. The settings on record: for IC50: Homo sapiens, NCI-H146, about 72 hours, 5% FBS. How it is done: as §1, with “invention.” for “invention. The following table lists the IC50 values of certain compounds of the invention.”
For data set [4] the following is noted: cited from earlier work.
For data set [5] the following is noted: cited from earlier work. This is another data set of the same source.
For data set [6], the system named is xenograft models of small-cell lung cancer and acute lymphoblastic leukemia. The settings on record: single agent; cited from earlier work.
Data set [7] has as its system circulating platelets. The settings on record: clinical trial, patients; cited from earlier work.
The subject of data set [8] is SCLC H146 cell line. The settings on record: read-out: IC50 against SCLC H146 cell line; cited from earlier work.
In data set [9] the target is Bcl-w (Homo sapiens (Human), UniProt Q92843). The settings on record: cited from earlier work.
Bcl-w, sequence (Q92843 whole entry): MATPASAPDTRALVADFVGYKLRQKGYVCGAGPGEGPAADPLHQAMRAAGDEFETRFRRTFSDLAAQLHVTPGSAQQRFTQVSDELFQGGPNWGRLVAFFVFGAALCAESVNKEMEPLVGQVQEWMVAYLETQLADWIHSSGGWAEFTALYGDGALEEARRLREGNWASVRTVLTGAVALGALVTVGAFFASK
Data set [10] deals with H345 xenograft. The settings on record: 100 mg/kg/day, H345 xenograft model; cited from earlier work.

`CC1(C)CCC(CN2CCN(c3ccc(C(=O)NS(=O)(=O)c4ccc(SCC5CCOCC5)c([N+](=O)[O-])c4)c(-n4ncc5nc6[nH]ccc6cc54)c3)CC2)=C(c2ccc(Cl)cc2)C1` [Example 11, 4-(4-((4′-chloro-5,5-dimethyl-3,4,5,6-tetrahydro-[1,1′-biphenyl]-2-yl)methyl)piperazin-1-yl)-N-((3-nitro-4-(((tetrahydro-2H-pyran-4-yl)methyl)thio)phenyl)sulfonyl)-2-(pyrazolo[4,3-b]pyrrolo[3,2-e]pyridin-1(5H)-yl)benzamide]: the IC50 in [1] is under 10 nM.

In the case of `CC1(C)CCC(CN2CCN(c3ccc(C(=O)NS(=O)(=O)c4ccc(OCC5(F)CCN(C6COC6)CC5)c([N+](=O)[O-])c4)c(-n4ncc5nc6[nH]ccc6cc54)c3)CC2)=C(c2ccc(Cl)cc2)C1` [Example 17, 4-(4-((4′-chloro-5,5-dimethyl-3,4,5,6-tetrahydro-[1,1′-biphenyl]-2-yl)methyl)piperazin-1-yl)-N-((4-((4-fluoro-1-(oxetan-3-yl)piperidin-4-yl)methoxy)-3-nitrophenyl)sulfonyl)-2-(pyrazolo[4,3-b]pyrrolo[3,2-e]pyridin-1(5H)-yl)benzamide], the concentration for half-maximal inhibition (IC50) in data set [1] is under 10 nM.

Consider `CC1(C)CCC(CN2CCN(c3ccc(C(=O)NS(=O)(=O)c4ccc(NC[C@@H]5CN(C6COC6)CCO5)c([N+](=O)[O-])c4)c(-n4ncc5nc6[nH]ccc6cc54)c3)CC2)=C(c2ccc(Cl)cc2)C1` [Example 15, (R)-4-(4-((4′-chloro-5,5-dimethyl-3,4,5,6-tetrahydro-[1,1′-biphenyl]-2-yl)methyl)piperazin-1-yl)-N-((3-nitro-4-(((4-(oxetan-3-yl)morpholin-2-yl)methyl)amino)phenyl)sulfonyl)-2-(pyrazolo[4,3-b]pyrrolo[3,2-e]pyridin-1(5H)-yl)benzamide], for which the IC50 in [1] was under 10 nM.

Regarding `CC1(C)CCC(CN2CCN(c3ccc(C(=O)NS(=O)(=O)c4ccc(OCC5CCOCC5)c([N+](=O)[O-])c4)c(-n4ncc5nc6[nH]ccc6cc54)c3)CC2)=C(c2ccc(Cl)cc2)C1` [Example 18, 4-(4-((4′-chloro-5,5-dimethyl-3,4,5,6-tetrahydro-[1,1′-biphenyl]-2-yl)methyl)piperazin-1-yl)-N-((3-nitro-4-((tetrahydro-2H-pyran-4-yl)methoxy)phenyl)sulfonyl)-2-(pyrazolo[4,3-b]pyrrolo[3,2-e]pyridin-1(5H)-yl)benzamide], in data set [1], the IC50 is under 10 nM.

As to `CC1(C)CCC(CN2CCN(c3ccc(C(=O)NS(=O)(=O)c4ccc(NCC5(F)CCOCC5)c([N+](=O)[O-])c4)c(-n4ncc5nc6[nH]ccc6cc54)c3)CC2)=C(c2ccc(Cl)cc2)C1` [Example 12, 4-(4-((4′-chloro-5,5-dimethyl-3,4,5,6-tetrahydro-[1,1′-biphenyl]-2-yl)methyl)piperazin-1-yl)-N-((4-(((4-fluorotetrahydro-2H-pyran-4-yl)methyl)amino)-3-nitrophenyl)sulfonyl)-2-(pyrazolo[4,3-b]pyrrolo[3,2-e]pyridin-1(5H)-yl)benzamide], the concentration for half-maximal inhibition (IC50) was under 10 nM in [1], under 15 nM in [2] and over 2000 nM in data set [3].

Take `CC1(C)CCC(CN2CCN(c3ccc(C(=O)NS(=O)(=O)c4ccc(NCC5CCOCC5)c([N+](=O)[O-])c4)c(-n4ncc5nc6[nH]ccc6cc54)c3)CC2)=C(c2ccc(Cl)cc2)C1` [Example 4, 4-(4-((4′-chloro-5,5-dimethyl-3,4,5,6-tetrahydro-[1,1′-biphenyl]-2-yl)methyl)piperazin-1-yl)-N-((3-nitro-4-(((tetrahydro-2H-pyran-4-yl)methyl)amino)phenyl)sulfonyl)-2-(pyrazolo[4,3-b]pyrrolo[3,2-e]pyridin-1(5H)-yl)benzamide]: the IC50 is under 10 nM in data set [1], under 15 nM in data set [2] and over 2000 nM in data set [3]. For the same molecule, the “BCL-2 selectivity concluded from H146 IC50” value in data set [3] (BCL-XL dependent cell line H146) was “BCL-2 selective inhibitor”.

Turning to `CN1CCC(F)(CNc2ccc(S(=O)(=O)NC(=O)c3ccc(N4CCN(CC5=C(c6ccc(Cl)cc6)CC(C)(C)CC5)CC4)cc3-n3ncc4nc5[nH]ccc5cc43)cc2[N+](=O)[O-])CC1` [Example 16, 4-(4-((4′-chloro-5,5-dimethyl-3,4,5,6-tetrahydro-[1,1′-biphenyl]-2-yl)methyl)piperazin-1-yl)-N-((4-(((4-fluoro-1-methylpiperidin-4-yl)methyl)amino)-3-nitrophenyl)sulfonyl)-2-(pyrazolo[4,3-b]pyrrolo[3,2-e]pyridin-1(5H)-yl)benzamide], the IC50 in data set [1] is under 10 nM.

Regarding `CN1CCC(CNc2ccc(S(=O)(=O)NC(=O)c3ccc(N4CCN(CC5=C(c6ccc(Cl)cc6)CC(C)(C)CC5)CC4)cc3-n3ncc4nc5[nH]ccc5cc43)cc2[N+](=O)[O-])CC1` [Example 13, 4-(4-((4′-chloro-5,5-dimethyl-3,4,5,6-tetrahydro-[1,1′-biphenyl]-2-yl)methyl)piperazin-1-yl)-N-((4-(((1-methylpiperidin-4-yl)methyl)amino)-3-nitrophenyl)sulfonyl)-2-(pyrazolo[4,3-b]pyrrolo[3,2-e]pyridin-1(5H)-yl)benzamide], in data set [1], the half-inhibitory concentration (IC50) is under 10 nM.

For the molecule `CC1(C)CCC(CN2CCN(c3ccc(C(=O)NS(=O)(=O)c4ccc(NCC5(F)CCN(C6COC6)CC5)c([N+](=O)[O-])c4)c(-n4ncc5nc6[nH]ccc6cc54)c3)CC2)=C(c2ccc(Cl)cc2)C1` [Example 14, 4-(4-((4′-chloro-5,5-dimethyl-3,4,5,6-tetrahydro-[1,1′-biphenyl]-2-yl)methyl)piperazin-1-yl)-N-((4-(((4-fluoro-1-(oxetan-3-yl)piperidin-4-yl)methyl)amino)-3-nitrophenyl)sulfonyl)-2-(pyrazolo[4,3-b]pyrrolo[3,2-e]pyridin-1(5H)-yl)benzamide], in [1], the half-maximal inhibitory concentration (IC50) is under 10 nM.

As to `CN(C)CC[C@H](CSc1ccccc1)Nc1ccc(S(=O)(=O)NC(=O)c2ccc(N3CCN(Cc4ccccc4-c4ccc(Cl)cc4)CC3)cc2)cc1[N+](=O)[O-]` [ABT-737], in [4], the oral bioavailability result was “not orally bioavailable”. The aqueous solubility entry in data set [5] is “low”.

Take `CC1(C)CCC(CN2CCN(c3ccc(C(=O)NS(=O)(=O)c4ccc(N5CCOCC5)c([N+](=O)[O-])c4)c(-n4ncc5nc6[nH]ccc6cc54)c3)CC2)=C(c2ccc(Cl)cc2)C1` [Example 8, 4-(4-((4′-chloro-5,5-dimethyl-3,4,5,6-tetrahydro-[1,1′-biphenyl]-2-yl)methyl)piperazin-1-yl)-N-((4-morpholino-3-nitrophenyl)sulfonyl)-2-(pyrazolo[4,3-b]pyrrolo[3,2-e]pyridin-1(5H)-yl)benzamide]: in data set [1], the IC50 is under 10 nM.

Regarding `CC1(C)CCC(c2ccc(Cl)cc2)=C(CN2CCN(c3ccc(C(=O)NS(=O)(=O)c4ccc(N[C@H](CCN5CCOCC5)CSc5ccccc5)c(S(=O)(=O)C(F)(F)F)c4)cc3)CC2)C1` [ABT-263], in data set [6], the “tumor response, oral administration alone” value is given as “complete tumor regressions”. The “effect on number of circulating platelets” value in data set [7] is recorded as “rapid, concentration-dependent decrease”. Further, the IC50 is 110 nM in [8] and 60 nM in [3]. Besides, in [9], the inhibitory constant (Ki) is at most 1 nM. Further, the TGI in data set [10] is on record as 80%. Besides, the “treated tumors indicating at least a 50% reduction in tumor volume” value in data set [10] is reported as 20%.
